Like-named read-outs stand apart in the source and are kept apart here. Values belong to the compound of their own block, whether it stands above or below them.
Assays:
Experiment in all cases: biochemical
Parameters in all cases: DiscoveRx KINOMEscan active site-directed competition binding; percent of control kinase bound to immobilised ligand
SIK = target: T1, SIK (Homo sapiens, UniProt P57059)
T1 construct: gene SIK1

WNK2 = WNK2 (Homo sapiens, UniProt Q9Y3S1)
CDC2L5 = target: T2, CDC2L5 (Homo sapiens, UniProt Q14004)
T2 construct: gene CDK13
T2 sequence (Q14004 whole entry): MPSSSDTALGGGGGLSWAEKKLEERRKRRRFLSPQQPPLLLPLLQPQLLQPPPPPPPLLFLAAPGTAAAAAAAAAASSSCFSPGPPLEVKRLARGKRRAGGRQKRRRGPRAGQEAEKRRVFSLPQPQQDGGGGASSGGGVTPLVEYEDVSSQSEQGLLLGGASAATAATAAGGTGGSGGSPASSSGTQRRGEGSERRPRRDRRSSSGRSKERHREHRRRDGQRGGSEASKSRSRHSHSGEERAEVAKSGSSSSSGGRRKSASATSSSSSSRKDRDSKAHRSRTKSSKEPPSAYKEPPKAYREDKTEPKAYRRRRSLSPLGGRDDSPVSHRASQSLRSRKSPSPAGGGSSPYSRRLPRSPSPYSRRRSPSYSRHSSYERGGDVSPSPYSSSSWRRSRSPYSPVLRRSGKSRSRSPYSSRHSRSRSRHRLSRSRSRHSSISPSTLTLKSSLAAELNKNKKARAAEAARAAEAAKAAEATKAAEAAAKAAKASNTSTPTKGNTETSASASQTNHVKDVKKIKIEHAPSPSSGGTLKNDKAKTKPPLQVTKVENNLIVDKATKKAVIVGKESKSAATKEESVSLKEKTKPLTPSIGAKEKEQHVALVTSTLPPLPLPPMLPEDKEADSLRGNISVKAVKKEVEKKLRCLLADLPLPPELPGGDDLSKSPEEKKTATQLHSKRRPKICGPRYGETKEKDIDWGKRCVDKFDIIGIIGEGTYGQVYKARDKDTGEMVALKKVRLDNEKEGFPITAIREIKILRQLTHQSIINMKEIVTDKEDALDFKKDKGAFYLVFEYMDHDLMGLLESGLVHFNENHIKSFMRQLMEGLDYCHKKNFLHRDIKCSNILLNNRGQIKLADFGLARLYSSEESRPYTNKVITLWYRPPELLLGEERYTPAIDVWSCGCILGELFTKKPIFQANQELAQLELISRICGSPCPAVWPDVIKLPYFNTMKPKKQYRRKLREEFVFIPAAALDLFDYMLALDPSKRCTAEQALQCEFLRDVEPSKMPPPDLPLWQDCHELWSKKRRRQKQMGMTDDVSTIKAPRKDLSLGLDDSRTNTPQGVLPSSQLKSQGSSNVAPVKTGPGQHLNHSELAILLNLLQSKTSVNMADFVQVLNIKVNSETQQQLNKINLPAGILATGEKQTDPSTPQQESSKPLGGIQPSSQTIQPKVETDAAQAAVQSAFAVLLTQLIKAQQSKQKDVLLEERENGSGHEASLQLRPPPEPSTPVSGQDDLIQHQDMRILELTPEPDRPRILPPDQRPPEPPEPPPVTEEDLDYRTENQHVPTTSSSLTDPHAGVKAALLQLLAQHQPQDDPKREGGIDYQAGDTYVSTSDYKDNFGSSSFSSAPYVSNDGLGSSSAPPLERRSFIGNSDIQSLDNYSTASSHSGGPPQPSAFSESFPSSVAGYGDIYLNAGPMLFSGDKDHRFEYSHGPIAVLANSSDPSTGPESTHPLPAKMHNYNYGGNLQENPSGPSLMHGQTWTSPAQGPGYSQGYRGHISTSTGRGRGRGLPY

ACVR2B = ACVR2B (Homo sapiens, UniProt Q13705)
Chain of ACVR2B (Q13705 whole entry): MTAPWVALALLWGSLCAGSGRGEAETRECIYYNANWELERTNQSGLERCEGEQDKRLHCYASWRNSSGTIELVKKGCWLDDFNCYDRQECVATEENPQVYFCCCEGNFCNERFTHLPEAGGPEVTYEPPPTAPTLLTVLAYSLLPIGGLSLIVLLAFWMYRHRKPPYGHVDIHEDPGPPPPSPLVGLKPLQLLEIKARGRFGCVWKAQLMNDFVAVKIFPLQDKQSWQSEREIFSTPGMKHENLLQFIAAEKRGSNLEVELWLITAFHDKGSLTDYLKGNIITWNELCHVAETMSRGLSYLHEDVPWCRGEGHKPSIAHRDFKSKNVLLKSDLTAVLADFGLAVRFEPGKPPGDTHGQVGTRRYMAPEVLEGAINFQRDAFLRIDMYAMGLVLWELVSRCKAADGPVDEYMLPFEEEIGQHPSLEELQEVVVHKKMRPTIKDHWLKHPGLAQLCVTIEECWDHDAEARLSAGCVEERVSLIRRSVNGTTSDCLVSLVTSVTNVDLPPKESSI

[1] = target: T3, RSK2(Kin.Dom.2-C-terminal) (Homo sapiens, UniProt P51812)
T3 construct: gene RPS6KA3; Kin.Dom.2-C-terminal

NEK3 = target: T4, NEK3 (Homo sapiens, UniProt P51956)
T4 sequence (P51956 1-506): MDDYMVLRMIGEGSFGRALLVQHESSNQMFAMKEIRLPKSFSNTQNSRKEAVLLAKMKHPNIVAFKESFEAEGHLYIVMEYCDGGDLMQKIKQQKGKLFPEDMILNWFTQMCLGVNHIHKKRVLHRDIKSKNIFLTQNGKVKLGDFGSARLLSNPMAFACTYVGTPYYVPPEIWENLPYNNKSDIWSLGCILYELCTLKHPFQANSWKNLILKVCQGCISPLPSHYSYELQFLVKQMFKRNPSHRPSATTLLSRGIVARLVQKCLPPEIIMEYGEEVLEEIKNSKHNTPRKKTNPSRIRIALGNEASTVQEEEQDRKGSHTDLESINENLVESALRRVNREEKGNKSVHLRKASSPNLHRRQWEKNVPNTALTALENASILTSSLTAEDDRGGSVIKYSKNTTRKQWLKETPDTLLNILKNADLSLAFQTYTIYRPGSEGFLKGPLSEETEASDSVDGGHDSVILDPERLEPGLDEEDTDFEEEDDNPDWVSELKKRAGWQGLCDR

MAP3K15 = target: T5, MAP3K15 (Homo sapiens, UniProt Q6ZN16)
T5 sequence (Q6ZN16 1-1313): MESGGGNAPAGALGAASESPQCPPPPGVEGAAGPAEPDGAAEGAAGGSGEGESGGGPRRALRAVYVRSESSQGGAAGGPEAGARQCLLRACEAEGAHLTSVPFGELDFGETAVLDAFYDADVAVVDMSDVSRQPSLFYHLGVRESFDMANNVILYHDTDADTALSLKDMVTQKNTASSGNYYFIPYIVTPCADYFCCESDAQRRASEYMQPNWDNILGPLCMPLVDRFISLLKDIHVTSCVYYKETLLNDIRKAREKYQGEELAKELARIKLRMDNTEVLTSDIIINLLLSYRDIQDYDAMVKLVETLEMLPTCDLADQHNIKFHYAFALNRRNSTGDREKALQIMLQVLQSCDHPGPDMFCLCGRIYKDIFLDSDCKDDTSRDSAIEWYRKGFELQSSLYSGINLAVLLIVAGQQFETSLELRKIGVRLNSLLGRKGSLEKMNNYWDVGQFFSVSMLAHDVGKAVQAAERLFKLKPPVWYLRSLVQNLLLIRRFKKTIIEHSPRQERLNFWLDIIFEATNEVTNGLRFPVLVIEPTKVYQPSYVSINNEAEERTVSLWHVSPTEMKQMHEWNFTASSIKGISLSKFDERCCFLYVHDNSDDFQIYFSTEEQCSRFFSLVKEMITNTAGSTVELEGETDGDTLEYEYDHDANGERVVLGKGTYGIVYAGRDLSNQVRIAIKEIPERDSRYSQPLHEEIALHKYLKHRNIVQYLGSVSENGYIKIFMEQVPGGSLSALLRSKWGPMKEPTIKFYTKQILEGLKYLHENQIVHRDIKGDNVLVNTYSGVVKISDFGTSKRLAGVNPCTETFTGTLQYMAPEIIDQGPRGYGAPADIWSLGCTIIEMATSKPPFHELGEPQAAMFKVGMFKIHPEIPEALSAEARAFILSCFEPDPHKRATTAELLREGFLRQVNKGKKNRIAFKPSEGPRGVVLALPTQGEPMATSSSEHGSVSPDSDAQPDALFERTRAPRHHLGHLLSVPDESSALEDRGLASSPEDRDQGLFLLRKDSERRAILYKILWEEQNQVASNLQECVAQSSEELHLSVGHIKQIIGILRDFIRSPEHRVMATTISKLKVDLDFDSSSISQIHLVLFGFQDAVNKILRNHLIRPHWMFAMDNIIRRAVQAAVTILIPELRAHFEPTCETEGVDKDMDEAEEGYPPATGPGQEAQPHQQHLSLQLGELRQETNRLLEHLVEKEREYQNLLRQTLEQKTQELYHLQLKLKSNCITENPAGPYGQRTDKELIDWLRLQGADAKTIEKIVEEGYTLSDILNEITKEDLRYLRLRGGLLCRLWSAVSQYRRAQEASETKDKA

[2] = read-out: Olaparib / %Ctrl @ 10000nM
[3] = read-out: Talazoparib (BMN 673) / %Ctrl @ 10000nM
[4] = read-out: Rucaparib / %Ctrl @ 10000nM, binding competition, % of control
[5] = read-out: Niraparib (MK-4827) / %Ctrl @ 10000nM

Chain of WNK2 (Q9Y3S1 whole entry): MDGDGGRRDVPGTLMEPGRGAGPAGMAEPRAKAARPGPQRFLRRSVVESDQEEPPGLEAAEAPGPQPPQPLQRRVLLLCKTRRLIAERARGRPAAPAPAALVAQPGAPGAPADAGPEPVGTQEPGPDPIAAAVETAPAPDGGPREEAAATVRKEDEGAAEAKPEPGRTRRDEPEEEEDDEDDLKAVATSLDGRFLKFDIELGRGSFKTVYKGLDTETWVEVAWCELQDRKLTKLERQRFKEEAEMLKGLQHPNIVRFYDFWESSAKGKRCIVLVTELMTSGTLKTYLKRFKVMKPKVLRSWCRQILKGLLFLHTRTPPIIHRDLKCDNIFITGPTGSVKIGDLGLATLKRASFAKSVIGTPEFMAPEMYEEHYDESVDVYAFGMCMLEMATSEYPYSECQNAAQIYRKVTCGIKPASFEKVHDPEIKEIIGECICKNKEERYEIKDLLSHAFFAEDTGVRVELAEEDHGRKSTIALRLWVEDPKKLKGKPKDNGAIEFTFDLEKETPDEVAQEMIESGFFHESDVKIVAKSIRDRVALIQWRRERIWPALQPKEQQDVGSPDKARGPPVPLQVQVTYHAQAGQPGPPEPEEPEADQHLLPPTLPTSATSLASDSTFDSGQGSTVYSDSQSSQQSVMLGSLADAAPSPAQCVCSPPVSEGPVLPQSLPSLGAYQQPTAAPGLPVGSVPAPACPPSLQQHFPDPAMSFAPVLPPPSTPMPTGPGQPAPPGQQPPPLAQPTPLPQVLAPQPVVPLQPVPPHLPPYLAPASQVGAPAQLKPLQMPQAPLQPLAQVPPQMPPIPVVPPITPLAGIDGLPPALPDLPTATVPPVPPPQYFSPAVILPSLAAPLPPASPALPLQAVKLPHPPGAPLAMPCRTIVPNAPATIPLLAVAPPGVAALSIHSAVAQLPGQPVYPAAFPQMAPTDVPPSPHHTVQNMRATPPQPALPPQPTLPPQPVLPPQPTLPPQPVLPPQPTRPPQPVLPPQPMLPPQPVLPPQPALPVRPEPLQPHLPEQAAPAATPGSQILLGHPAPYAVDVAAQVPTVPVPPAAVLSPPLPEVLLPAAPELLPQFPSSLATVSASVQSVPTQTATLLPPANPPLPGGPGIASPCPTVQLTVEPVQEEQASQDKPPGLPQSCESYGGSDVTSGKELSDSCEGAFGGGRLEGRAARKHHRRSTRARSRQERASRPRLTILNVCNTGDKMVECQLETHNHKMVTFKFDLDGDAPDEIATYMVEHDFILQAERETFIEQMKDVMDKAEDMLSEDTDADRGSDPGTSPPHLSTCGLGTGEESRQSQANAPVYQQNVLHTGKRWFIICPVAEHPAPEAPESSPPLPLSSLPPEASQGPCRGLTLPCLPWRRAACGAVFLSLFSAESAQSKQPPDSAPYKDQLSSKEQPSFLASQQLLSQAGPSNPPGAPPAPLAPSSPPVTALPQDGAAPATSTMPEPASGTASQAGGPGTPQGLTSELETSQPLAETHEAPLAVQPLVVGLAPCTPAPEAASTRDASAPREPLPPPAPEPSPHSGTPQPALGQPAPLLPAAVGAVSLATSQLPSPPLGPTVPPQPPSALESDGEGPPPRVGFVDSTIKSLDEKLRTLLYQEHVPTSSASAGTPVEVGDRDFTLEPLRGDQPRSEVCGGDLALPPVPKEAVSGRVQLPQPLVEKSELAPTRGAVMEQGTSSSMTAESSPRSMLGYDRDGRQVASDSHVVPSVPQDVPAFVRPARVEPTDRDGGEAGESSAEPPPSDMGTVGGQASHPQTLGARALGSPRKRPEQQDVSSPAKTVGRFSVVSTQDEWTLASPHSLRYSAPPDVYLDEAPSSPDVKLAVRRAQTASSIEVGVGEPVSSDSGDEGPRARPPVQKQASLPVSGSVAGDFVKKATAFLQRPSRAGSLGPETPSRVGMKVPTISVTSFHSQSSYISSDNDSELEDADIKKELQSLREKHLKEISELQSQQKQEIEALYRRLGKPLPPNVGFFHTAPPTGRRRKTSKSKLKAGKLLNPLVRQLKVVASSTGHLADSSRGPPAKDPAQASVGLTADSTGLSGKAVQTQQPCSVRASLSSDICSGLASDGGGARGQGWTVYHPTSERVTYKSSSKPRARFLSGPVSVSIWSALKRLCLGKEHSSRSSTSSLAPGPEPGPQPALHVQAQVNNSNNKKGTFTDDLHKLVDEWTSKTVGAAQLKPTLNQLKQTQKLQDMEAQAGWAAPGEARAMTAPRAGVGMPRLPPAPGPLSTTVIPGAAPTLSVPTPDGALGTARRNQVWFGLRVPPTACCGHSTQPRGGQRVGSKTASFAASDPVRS
T1 sequence (P57059 whole entry): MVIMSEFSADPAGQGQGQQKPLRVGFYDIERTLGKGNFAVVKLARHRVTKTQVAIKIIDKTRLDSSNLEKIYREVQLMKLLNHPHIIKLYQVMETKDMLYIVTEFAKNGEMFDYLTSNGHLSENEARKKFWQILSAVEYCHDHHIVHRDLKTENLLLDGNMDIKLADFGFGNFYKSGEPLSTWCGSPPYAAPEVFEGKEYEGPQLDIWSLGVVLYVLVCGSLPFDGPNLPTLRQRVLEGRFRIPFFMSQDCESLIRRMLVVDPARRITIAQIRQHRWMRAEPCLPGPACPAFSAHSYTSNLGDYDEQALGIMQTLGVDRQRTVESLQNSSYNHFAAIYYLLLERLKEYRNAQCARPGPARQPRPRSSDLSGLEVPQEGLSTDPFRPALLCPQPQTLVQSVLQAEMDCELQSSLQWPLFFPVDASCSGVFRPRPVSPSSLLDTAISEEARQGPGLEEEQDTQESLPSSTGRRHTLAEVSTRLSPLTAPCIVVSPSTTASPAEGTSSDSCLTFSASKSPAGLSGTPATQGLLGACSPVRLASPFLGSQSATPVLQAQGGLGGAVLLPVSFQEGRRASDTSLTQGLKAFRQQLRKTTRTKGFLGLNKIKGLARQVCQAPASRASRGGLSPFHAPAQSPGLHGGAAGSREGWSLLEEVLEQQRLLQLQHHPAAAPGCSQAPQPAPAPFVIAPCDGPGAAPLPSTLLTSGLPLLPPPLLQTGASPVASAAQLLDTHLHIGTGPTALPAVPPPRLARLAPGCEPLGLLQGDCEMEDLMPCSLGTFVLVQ

- percent of control binding at 10 µM (SIK; [2]): 95%
- percent of control binding at 10 µM (WNK2; [2]): 76%
- percent of control binding at 10 µM (CDC2L5; [2]): 99%
- percent of control binding at 10 µM (ACVR2B; [2]): 100%
- percent of control binding at 10 µM [1, 2]: 72%
- percent of control binding at 10 µM (NEK3; [2]): 81%
- percent of control binding at 10 µM (MAP3K15; [2]): 100%
SMILES: O=C(c1cc(Cc2n[nH]c(=O)c3ccccc23)ccc1F)N1CCN(C(=O)C2CC2)CC1 [Olaparib]

- percent of control binding at 10 µM (SIK; [3]): 78%
- percent of control binding at 10 µM (WNK2; [3]): 100%
- percent of control binding at 10 µM (CDC2L5; [3]): 100%
- percent of control binding at 10 µM (ACVR2B; [3]): 100%
- percent of control binding at 10 µM [1, 3]: 100%
- percent of control binding at 10 µM (NEK3; [3]): 66%
- percent of control binding at 10 µM (MAP3K15; [3]): 100%
SMILES: Cn1ncnc1[C@H]1c2n[nH]c(=O)c3cc(F)cc(c23)N[C@@H]1c1ccc(F)cc1 [Talazoparib]

- percent of control binding at 10 µM (SIK; [4]): 87%
- percent of control binding at 10 µM (WNK2; [4]): 66%
- percent of control binding at 10 µM (CDC2L5; [4]): 98%
- percent of control binding at 10 µM (ACVR2B; [4]): 100%
- percent of control binding at 10 µM [1, 4]: 64%
- percent of control binding at 10 µM (NEK3; [4]): 86%
- percent of control binding at 10 µM (MAP3K15; [4]): 73%
SMILES: CNCc1ccc(-c2[nH]c3cc(F)cc4c3c2CCNC4=O)cc1 [Rucaparib]

SMILES: NC(=O)c1cccc2cn(-c3ccc([C@@H]4CCCNC4)cc3)nc12 [Niraparib]
- percent of control binding at 10 µM (SIK; [5]): 93%
- percent of control binding at 10 µM (WNK2; [5]): 100%
- percent of control binding at 10 µM (CDC2L5; [5]): 100%
- percent of control binding at 10 µM (ACVR2B; [5]): 100%
- percent of control binding at 10 µM [1, 5]: 100%
- percent of control binding at 10 µM (NEK3; [5]): 88%
- percent of control binding at 10 µM (MAP3K15; [5]): 64%
